Measured values published in patent US20110269799A1 (priority 2008, published 2011).
Values joined by “and” are separate entries in the source; they are usually repeats but may differ in a detail not shown here. Equal values may be shown once. Read-outs that look alike come from different tables or passages of the source.

Tests used:
[1] = tested on: patients with atrial fibrillation
Procedure: PETRO-Ex began while the PETRO study was ongoing and investigators were initially kept blinded to patient treatment group until PETRO was completed. Unblinding investigators to patient treatment was possible thereafter.
Data were summarized descriptively; no hypothesis was to be tested. Events were analyzed on the basis of the treatment at onset. Incidences were reported as number of patients with events as well as normalized to 100 patient-years on the respective treatment.
Patients who completed PETRO on 50 mg b.i.d. were switched to 150 mg q.d. upon entry in the PETRO-Ex study (N=93 patients). […] Patients who were down titrated to 50 mg q.d. based on a glomerular filtration rate<50 mL/min during PETRO were excluded from the long-term trial; patients down-titrated in other dose levels remained on the q.d. treatment at that dose.

[2] = tested on: patients with chronic atrial fibrillation; assay: PETRO phase 2 12-week dose finding study, dabigatran etexilate alone or with aspirin vs. warfarin; type: in vivo, human; details: 12 weeks
From the text: Primary endpoints were bleeding events and changes in D-dimer. […] Minor bleeding was dose related.

[3] = tested on: patients with atrial fibrillation at risk of stroke
From the text: Median follow-up was 2.0 years and the primary outcome was stroke or systemic embolism.
Patients were recruited from 951 clinical centers in 44 countries. In brief, patients were eligible if they had atrial fibrillation documented on electrocardiogram at screening or within 6 months; and at least one of the following: prior stroke or transient ischemic attack; left ventricular ejection fraction less than 40%; New York Heart Association heart failure symptoms of Class 2 or greater within 6 months; age at least 75 years; or age at least 65 years with diabetes mellitus, hypertension or coronary artery disease.
The time in therapeutic range was calculated by the method of Rosendaal (Rosendaal F R, et al., A method to determine the optimal intensity of oral anticoagulant therapy, Thromb Haemost, 1993, 69:236-239), excluding INRs from the first week and after discontinuations. […] Concomitant use of aspirin (less than 100 mg/day) or other antiplatelet agents was allowed.
Liver function testing was performed monthly during the first year of follow-up.
The primary study outcome was stroke or systemic embolism. The primary safety outcome was major hemorrhage. Secondary outcomes were stroke, systemic embolism and death. Other outcomes were myocardial infarction, pulmonary embolism, transient ischemic attacks, and hospitalizations. The primary net benefit-risk outcome was the composite of stroke, systemic embolism, pulmonary embolism, myocardial infarction, death or major hemorrhage. Stroke was defined as sudden onset of focal neurological deficit consistent with the territory of a major cerebral artery and categorized as ischemic, hemorrhagic or unspecified. Hemorrhagic transformation of ischemic stroke was not considered as hemorrhagic stroke. Intracranial hemorrhage included hemorrhagic stroke and sub-dural or sub-arachnoid hemorrhage. Systemic embolism was an acute vascular occlusion of an extremity or organ documented by imaging, surgery or autopsy. Major bleeding was defined as a reduction in hemoglobin level of at least […] or transfusion of at least 2 units of blood or symptomatic bleeding in a critical area or organ. Life-threatening bleeding was a subset of major bleeding that included fatal bleeding, symptomatic intracranial bleeding, bleeding with hemoglobin decrease of more than […] or requiring transfusion of more than 4 units of blood or requiring inotropic agents or necessitating surgery. All other bleeding was considered minor.
All primary and secondary outcome events were blindly and doubly adjudicated. An international team of adjudicators reviewed documents in local languages after blinding; or documents were translated by a independent group and blinded centrally. All transient ischemic attacks were reviewed to ensure that strokes had not been missed. To detect possible unreported events, symptom questionnaires were regularly administered to patients, and adverse events and hospitalization reports were scrutinized for unreported primary or secondary outcomes.
If maximum of the two p-values was greater than 0.025, the minimum of the two p-values must be less than 0.0125, one-sided, to claim statistical significance. All analyses were based on intention-to-treat.

AF patients [4] = details: ACTIVE W; cited from earlier work
AF patients [5] = details: SPORTIF III, cited from earlier work
AF patients [6] = details: SPORTIF V, cited from earlier work
[7] = tested on: patients who have nonvalvular atrial fibrillation; details: meta-analysis; cited from earlier work
[8] = individual patients with LFT abnormalities, one patient (age, sex) per table line

[H]/N=C(/N)c1ccc(NCc2nc3cc(C(=O)N(CCC(=O)O)c4ccccn4)ccc3n2C)cc1 [Dabigatran]
Fatal bleeding events, rate ([1]; all doses): 0.5 % per year | LFT abnormality ALT/ULN [1, 8]: >5x x ULN (4×) and >5x^# x ULN (2×) and >3x x ULN (5×) and >3x^# x ULN | LFT abnormality AST/ULN [1, 8]: >5x^# x ULN (4×) and >5x x ULN (4×) and >3x x ULN (5×) | Change in D-dimer levels [2]: comparable to warfarin | Rate of hemorrhagic stroke ([3]; 110 mg b.i.d.): 0.12 % per year | Stroke, Ischemic or Unspecified, Rate ([3]; 110 mg b.i.d.): 1.35 /100 Person Years | Stroke, systemic embolism, pulmonary embolism, myocardial infarction death or major bleed (net benefit), Rate ([3]; 110 mg b.i.d.): 7.37 /100 Person Years | Extracranial Bleeding, RR ([3]; 110 mg vs. Warfarin): 0.93 | First Hospitalization, RR ([3]; 110 mg vs. Warfarin): 0.92 | Non-disabling Stroke Modified Rankin 0-2, RR ([3]; 110 mg vs. Warfarin): 0.87 | Stroke or systemic embolism, RR ([3]; 110 mg vs. Warfarin): 0.91 | Stroke, Hemorrhagic, RR ([3]; 110 mg vs. Warfarin): 0.31 | Stroke, RR ([3]; 110 mg vs. Warfarin): 0.92 | Stroke, systemic embolism, pulmonary embolism, myocardial infarction death or major bleed (net benefit), RR ([3]; 110 mg vs. Warfarin): 0.92 | Rate of hemorrhagic stroke ([3]; 150 mg b.i.d.): 0.10 % per year | Stroke, systemic embolism, pulmonary embolism, myocardial infarction death or major bleed (net benefit), Rate ([3]; 150 mg b.i.d.): 7.22 /100 Person Years | Stroke, Ischemic or Unspecified, RR ([3]; 150 mg vs. 110 mg): 0.68 | Stroke, RR ([3]; 150 mg vs. 110 mg): 0.70 | Stroke, systemic embolism, pulmonary embolism, myocardial infarction death or major bleed (net benefit), RR ([3]; 150 mg vs. 110 mg): 0.98 | First Hospitalization, RR ([3]; 150 mg vs. Warfarin): 0.97 | Major Bleeding, Other Major, RR ([3]; 150 mg vs. Warfarin): 1.07 | Non-disabling Stroke Modified Rankin 0-2, RR ([3]; 150 mg vs. Warfarin): 0.62 | Stroke or systemic embolism, RR ([3]; 150 mg vs. Warfarin): 0.66 | Stroke, Hemorrhagic, RR ([3]; 150 mg vs. Warfarin): 0.26 | Stroke, Ischemic or Unspecified, RR ([3]; 150 mg vs. Warfarin): 0.76 | Stroke, RR ([3]; 150 mg vs. Warfarin): 0.64 | Stroke, systemic embolism, pulmonary embolism, myocardial infarction death or major bleed (net benefit), RR ([3]; 150 mg vs. Warfarin): 0.90 | Hepatotoxicity in serial measurement of liver function tests ([3]; in vivo): no evidence of hepatotoxicity

CC(=O)CC(c1ccccc1)c1c(O)c2ccccc2oc1=O (racemic) [Warfarin, 3-(α-acetonylbenzyl)-4-hydroxycoumarin]
Myocardial Infarction (AF patients [4]): 0.6% (warfarin) | Stroke and systemic embolism (per 100 patient years) (AF patients [4]): 1.5% (warfarin) | Myocardial Infarction (AF patients [5]): 0.6% (warfarin) | Stroke and systemic embolism (per 100 patient years) (AF patients [5]; ximelagatran 36 mg b.i.d.): 2.3% (warfarin) | Myocardial Infarction (AF patients [6]): 1.4% (warfarin) | Stroke and systemic embolism (per 100 patient years) (AF patients [6]; ximelagatran 36 mg b.i.d.): 1.2% (warfarin) | Reduction of the risk of stroke compared to control [7]: 64% | ALT or AST > 3xULN ([3]; warfarin INR 2.0-3.0): (2.1) % | ALT or AST > 3xULN with concurrent bilirubin > 2xULN ([3]; warfarin INR 2.0-3.0): (0.4) % | Adverse Event: Arthralgia ([3]; warfarin INR 2.0-3.0): (5.5) % | Adverse Event: Atrial fibrillation ([3]; warfarin INR 2.0-3.0): (5.4) % | Adverse Event: Back pain ([3]; warfarin INR 2.0-3.0): (5.5) % | Adverse Event: Chest pain ([3]; warfarin INR 2.0-3.0): (5.7) % | Adverse Event: Cough ([3]; warfarin INR 2.0-3.0): (5.8) % | Adverse Event: Diarrhea ([3]; warfarin INR 2.0-3.0): (5.5) % | Adverse Event: Dizziness ([3]; warfarin INR 2.0-3.0): (9.3) % | Adverse Event: Dyspepsia ([3]; warfarin INR 2.0-3.0): (1.4) % | Adverse Event: Dyspnoea ([3]; warfarin INR 2.0-3.0): (9.2) % | Adverse Event: Fatigue ([3]; warfarin INR 2.0-3.0): (5.9) % | Adverse Event: Nasopharyngitis ([3]; warfarin INR 2.0-3.0): (5.5) % | Adverse Event: Peripheral edema ([3]; warfarin INR 2.0-3.0): (7.6) % | Adverse Event: Upper respiratory tract infection ([3]; warfarin INR 2.0-3.0): (5.0) % | Adverse Event: Urinary tract infection ([3]; warfarin INR 2.0-3.0): (5.3) % | Major Bleeding, Life threatening, Rate ([3]; warfarin INR 2.0-3.0): 1.80 /100 Person Years | Major Bleeding, Other Major, Rate ([3]; warfarin INR 2.0-3.0): 1.80 /100 Person Years | Pulmonary embolism, Rate ([3]; warfarin INR 2.0-3.0): 0.09 /100 Person Years | Rate of discontinuation at 2.5 years ([3]; warfarin INR 2.0-3.0): 19% | Rate of hemorrhagic stroke ([3]; warfarin INR 2.0-3.0): 0.38 % per year | Rate of myocardial infarction ([3]; warfarin INR 2.0-3.0): 0.54 % per year | Rate of primary outcome, stroke or systemic embolism ([3]; warfarin INR 2.0-3.0): 1.70 % per year | Reason for discontinuation: Gastrointestinal bleeding ([3]; warfarin INR 2.0-3.0): (0.9) % | Reason for discontinuation: Gastrointestinal disorders (including pain, vomiting and diarrhea) ([3]; warfarin INR 2.0-3.0): (0.8) % | Reason for discontinuation: Outcome event ([3]; warfarin INR 2.0-3.0): (2.2) % | Reason for discontinuation: Patient decision ([3]; warfarin INR 2.0-3.0): (6.2) % | Reason for discontinuation: SAE ([3]; warfarin INR 2.0-3.0): (1.6) % | Stroke, systemic embolism, pulmonary embolism, myocardial infarction death or major bleed (net benefit), Rate ([3]; warfarin INR 2.0-3.0): 7.99 /100 Person Years | Study Drug Discontinuation at one year ([3]; warfarin INR 2.0-3.0): (10) % | Study Drug Discontinuation at two years ([3]; warfarin INR 2.0-3.0): (19) % | hepatobiliary disorders (AE) ([3]; warfarin INR 2.0-3.0): (2.2) % | hepatobiliary disorders (SAE) ([3]; warfarin INR 2.0-3.0): (0.4) % | Study Drug Discontinuation at one year ([3]; warfarin INR 2.0-3.0, listed as warfarin): 10%
